Where two headings read alike, the source gives them in different places.
Legend:
[1] = Evaluation of transparency (transmittance of cured coating layer); assay type: physicochemical
Description: Using a trifunctional acrylate (product name; M305, manufactured by Toagosei Co., Ltd.) as polyfunctional monomers, each of the compound 1, a combination of the compound 1 and triethanolamine of the same number of mol and a photoradical generator Irgacure 907 (Irg907) were mixed to prepare each THF solution in the same ratio as the Evaluation of curability. Each solution was applied by spin coating to a glass substrate and heated on a 50° C. hot plate for one minute. Then, the substrate was exposed to light from a high pressure mercury lamp at an intensity of 2,000 mJ/cm^2 based on h-rays by using a hand-operated exposure apparatus (MA-1200, manufactured by Dainippon Screen Mfg. Co., Ltd.), to obtain a coating layer having a thickness of 4.2±0.05 μm. The transmittance of each coating layer was measured by a spectrometer (UV-2550 (PC)S GLP; manufactured by Shimadzu Corporation).

Solubility test = assay type: physicochemical; details: for solubility at 3 h: organic solvent or mixture, thermodynamic from solid
Description: As for the compound 1 and the comparative compound 3, a solubility test was performed respectively. Each sample was added to each solvent or monomer so as to be 0.5 mol/L at 20° C. After radiating ultrasonic wave for 3 hours, one with a precipitate was concluded as “0” and one without a precipitate was concluded as “x”.

[2] = Evaluation 2 of curability (triethanolamine added as hydrogen donor)
Description: (§1) Using a trifunctional acrylate (product name; M-305, manufactured by Toagosei Co., Ltd.) as polyfunctional monomers, the compounds 1 to 14, the comparative compounds 2 and 3 and a photoradical generator Irgacure 907 (product name; manufactured by Ciba Specialty Chemicals) were mixed with each polyfunctional monomer to prepare each THF solution of each photoradical generator.
(§2) The mixing was performed so that a ratio of the photoradical generator to the polyfunctional monomer is such that number of imide part of each of the compounds 1 to 14 and the comparative compounds 2 and 3 with respect to number of double bond of the polyfunctional monomer is 1/50 (number of imide part/number of polyfunctional monomer) or, in the case of Irgacure, number of the molecule with respect to number of double bond of the polyfunctional monomer is 1/50 (number of Irgacure 907/number of polyfunctional monomer).
(§3) Each solution was applied by spin coating to a glass substrate on which chromium was sputtered to obtain coating layers. Also, a layer without initiator component or comparative compounds and only containing trifunctional acrylate was formed as a blank.
(§4) A decrement of the peak at 810 cm^−1 was recorded with time by using an infrared spectrometer (product name: FTS6000; manufactured by BIO RAD) while exposing the above coating layer to ultraviolet rays, to confirm the degree of the disappearance of a double bond. The atmosphere around the sample during measurement was replaced with nitrogen. As the UV exposure apparatus, UV Spot Cure SP-III type (standard reflecting mirror type) manufactured by Ushio Inc. was used and as the UV lamp, USH-255BY (manufactured by Ushio Inc.) was used.
In order to confirm whether or not the seven-membered ring imide structure-containing group was a hydrogen-drawing type radical generator, triethanolamine was added to THF solutions containing each of the compositions 1 to 14 used in the aforementioned Evaluation 1 of curability and trifunctional acrylate M305, coating layers were formed in the same manner as in the aforementioned Evaluation 1 of curability, and evaluated similarly. As comparative examples, each of the comparative compounds 1 and 3 was used.

[3] = Evaluation of heat resistance (thermogravimetry, 5% reduction in weight temperature); assay type: physicochemical; details: for 5% heat decomposition temperature: temperature rise rate 10° C./min
Description: Herein, the 5% reduction in weight temperature means a temperature at which the weight of a sample is reduced […] when a decrement of weight is measured using a thermogravimetric analyzer according to the same method as in the examples of the present invention as will be explained later. Similarly, the 10% reduction in weight temperature means a temperature at which the weight of a sample is reduced […].
Using a differential type differential thermal balance (product name: TG8120; manufactured by Rigaku Corporation), the 5% reduction in weight temperature of each of the compounds 1 to 15 was measured at a temperature rise rate of 10° C./min in a nitrogen atmosphere. As comparative examples, the comparative compounds 2 and 3 and a self-cleavage type photoradical generator Irgacure 907 (trademark; manufactured by Ciba Specialty Chemicals) were similarly measured.

[4] = Evaluation of ultraviolet absorption; assay type: physicochemical; details: for ultraviolet absorption bottom edge / ultraviolet absorption maximum wavelength: acetonitrile solution, 1.0×10^−5 mol/L
Description: Using an acetonitrile solution containing 1.0×10^−5 mol/L of each of the compounds 1 and 15, each ultraviolet absorption spectrum was measured.

[5] = Evaluation 1 of curability (coating layer with trifunctional acrylate, UV exposure, no hydrogen donor); details: for Reaction rate (decrement of double bond): nitrogen; for Compatibility with M305: imide part/double bond 1/50
Description: as §1, §2, §3, §4

[6] = 0.5 mol/L at 20° C., ultrasonic wave 3 hours

Structure (SMILES): COCCn1c(=O)c2ccccc2c2ccccc2c1=O [Compound 1]
- transmittance of cured layer ([1]; M305 coating layer 4.2±0.05 μm, 2,000 mJ/cm^2, compared to Irg907): high in transmittance with respect to the light of 410 nm or less
- transmittance of cured layer ([1]; triethanolamine of the same number of mol added, M305 coating layer 4.2±0.05 μm): almost same in transmittance as in the case of only the compound 1
- solubility, comparison in words (Solubility test): superior in solubility to the comparative compound 3
- Solubility in Acetone (Solubility test; [6]): ∘
- Solubility in Chloroform (Solubility test; [6]): ∘
- Solubility in Dimethylformamide (Solubility test; [6]): ∘
- Solubility in Ethyl acetate (Solubility test; [6]): ∘
- Solubility in Ethyl lactate (Solubility test; [6]): ∘
- Solubility in Methyl acrylate (Solubility test; [6]): ∘
- Solubility in Pentaerythritol triacrylate (M305) (Solubility test; [6]): ∘
- Solubility in Propylene glycol monoethyl ether acetate (Solubility test; [6]): ∘
- Solubility in Tetrahydrofuran (Solubility test; [6]): ∘
- Compatibility with M305 [2]: ∘
- Reaction rate (decrement of double bond) ([2]; Exposure 50 mJ): 17.3%
- Reaction rate (decrement of double bond) ([2]; Exposure 100 mJ): 23.6%
- Reaction rate (decrement of double bond) ([2]; Exposure 400 mJ): 36.6%
- 5% heat decomposition temperature ([3]; nitrogen atmosphere): 224 °C
- ultraviolet absorption bottom edge [4]: about 320 nm
- ultraviolet absorption maximum wavelength [4]: about 240 nm
- Reaction rate (decrement of double bond) ([5]; Exposure 50 mJ): 0.3%
- Reaction rate (decrement of double bond) ([5]; Exposure 100 mJ): 0.5%
- Reaction rate (decrement of double bond) ([5]; Exposure 400 mJ): 1.1%
- Compatibility with M305 [5]: ∘

Structure (SMILES): CN(C)CCn1c(=O)c2ccccc2c2ccccc2c1=O [Compound 13]
- Compatibility with M305 [2]: ∘
- Reaction rate (decrement of double bond) ([2]; Exposure 50 mJ): 11.0%
- Reaction rate (decrement of double bond) ([2]; Exposure 100 mJ): 15.2%
- Reaction rate (decrement of double bond) ([2]; Exposure 400 mJ): 24.8%
- heat resistance / 5% reduction in weight temperature, comparison in words ([3]; 10° C./min, nitrogen atmosphere): slightly lower 5% reduction in weight temperature
- 5% heat decomposition temperature ([3]; nitrogen atmosphere): 177 °C
- Reaction rate (decrement of double bond) ([5]; Exposure 50 mJ): 0.2%
- Reaction rate (decrement of double bond) ([5]; Exposure 100 mJ): 0.8%
- Reaction rate (decrement of double bond) ([5]; Exposure 400 mJ): 4.2%
- Compatibility with M305 [5]: ∘

Structure (SMILES): CC(=O)OCCN(CCn1c(=O)c2ccccc2c2ccccc2c1=O)C(C)=O [Compound 14]
- Compatibility with M305 [2]: ∘
- Reaction rate (decrement of double bond) ([2]; Exposure 50 mJ): 16.8%
- Reaction rate (decrement of double bond) ([2]; Exposure 100 mJ): 20.9%
- Reaction rate (decrement of double bond) ([2]; Exposure 400 mJ): 30.5%
- 5% heat decomposition temperature ([3]; nitrogen atmosphere): 234 °C
- Reaction rate (decrement of double bond) ([5]; Exposure 50 mJ): 1.0%
- Reaction rate (decrement of double bond) ([5]; Exposure 100 mJ): 2.0%
- Reaction rate (decrement of double bond) ([5]; Exposure 400 mJ): 6.4%
- Compatibility with M305 [5]: ∘

Structure (SMILES): COCCn1c(=O)c2cc([N+](=O)[O-])ccc2c2ccc([N+](=O)[O-])cc2c1=O [Compound 15]
- improvement of heat decomposition temperature in comparison with the compound 1 [3]: ≥ 50 °C
- 5% heat decomposition temperature ([3]; nitrogen atmosphere): 280 °C
- absorption at 365 nm (emitting wavelength of high pressure mercury lamp) [4]: has absorption at a wavelength of 365 nm
- ultraviolet absorption bottom edge [4]: about 320 nm
- ultraviolet absorption maximum wavelength [4]: about 240 nm

Structure (SMILES): C=CC(=O)OCCN1C(=O)C2=C(CCCC2)C1=O [compound 2, reference compound]
- Compatibility with M305 [2]: ∘
- Reaction rate (decrement of double bond) ([2]; Exposure 50 mJ): 1.3%
- Reaction rate (decrement of double bond) ([2]; Exposure 100 mJ): 2.0%
- Reaction rate (decrement of double bond) ([2]; Exposure 400 mJ): 8.6%
- 5% heat decomposition temperature ([3]; nitrogen atmosphere): 184 °C
- Reaction rate (decrement of double bond) ([5]; Exposure 50 mJ): 0.1%
- Reaction rate (decrement of double bond) ([5]; Exposure 100 mJ): 0.3%
- Reaction rate (decrement of double bond) ([5]; Exposure 400 mJ): 2.0%
- Compatibility with M305 [5]: ∘

Structure (SMILES): COCCN1C(=O)c2cccc3cccc(c23)C1=O [compound 3, reference compound]
- Solubility in Acetone (Solubility test; [6]): ∘
- Solubility in Chloroform (Solubility test; [6]): ∘
- Solubility in Dimethylformamide (Solubility test; [6]): ∘
- Solubility in Tetrahydrofuran (Solubility test; [6]): ∘
- solubility at 3 h (Solubility test; ethyl acetate, 0.5 mol/L at 20° C., ultrasonic wave 3 hours, read-out: Solubility in Ethyl acetate): < 500 mM
- solubility at 3 h (Solubility test; ethyl lactate, 0.5 mol/L at 20° C., ultrasonic wave 3 hours, read-out: Solubility in Ethyl lactate): < 500 mM
- solubility at 3 h (Solubility test; methyl acrylate, 0.5 mol/L at 20° C., ultrasonic wave 3 hours, read-out: Solubility in Methyl acrylate): < 500 mM
- solubility at 3 h (Solubility test; pentaerythritol triacrylate (M305), 0.5 mol/L at 20° C., ultrasonic wave 3 hours, read-out: Solubility in Pentaerythritol triacrylate (M305)): < 500 mM
- solubility at 3 h (Solubility test; propylene glycol monoethyl ether acetate, 0.5 mol/L at 20° C., ultrasonic wave 3 hours, read-out: Solubility in Propylene glycol monoethyl ether acetate): < 500 mM
- Compatibility with M305 [2]: ∘
- Reaction rate (decrement of double bond) ([2]; Exposure 50 mJ): 3.3%
- Reaction rate (decrement of double bond) ([2]; Exposure 100 mJ): 5.4%
- Reaction rate (decrement of double bond) ([2]; Exposure 400 mJ): 11.1%
- 5% heat decomposition temperature ([3]; nitrogen atmosphere): 229 °C
- Reaction rate (decrement of double bond) ([5]; Exposure 50 mJ): 1.0%
- Reaction rate (decrement of double bond) ([5]; Exposure 100 mJ): 2.5%
- Reaction rate (decrement of double bond) ([5]; Exposure 400 mJ): 26.6%
- Compatibility with M305 [5]: ∘
